Measurements: ChEMBL document CHEMBL1201861, “Genomics of Drug Sensitity in Cancer screening data, Wellcome Trust Sanger Institute”
pIC50: −log10 of the molar value.

How the values were obtained:
Experiment in all cases: cells
IMR-5 = format: functional, cell-based, Homo sapiens; conditions: Homo sapiens, IMR-5; read-out: IC50;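 also: growth inhibition of human IMR-5 cells, read out with a cell viability assay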
Description: SANGER: Inhibition of human IMR-5 cell growth in a cell viability assay.

NCI-H716 = format: functional, cell-based, Homo sapiens; conditions: Homo sapiens, NCI-H716;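 also: growth inhibition of human NCI-H716 cells, measured by a cell viability assay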
Description: SANGER: Inhibition of human NCI-H716 cell growth in a cell viability assay.

KARPAS-422 = format: functional, cell-based, Homo sapiens; conditions: Homo sapiens, KARPAS-422
Description: SANGER: Inhibition of human KARPAS-422 cell growth in a cell viability assay.

YT = format: functional, cell-based, Homo sapiens; conditions: Homo sapiens, YT
Description: SANGER: Inhibition of human YT cell growth in a cell viability assay.

P31-FUJ = format: functional, cell-based, Homo sapiens; conditions: Homo sapiens, P31-FUJ;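 also: growth inhibition of P31-FUJ cells, read out with a viability assay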
Description: SANGER: Inhibition of human P31-FUJ cell growth in a cell viability assay.

HuTu80 = format: functional, cell-based, Homo sapiens, HUTU-80; conditions: Homo sapiens, HuTu80;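 also: growth inhibition of HuTu80 human cells, determined with a cell viability readout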
Description: SANGER: Inhibition of human HUTU-80 cell growth in a cell viability assay.

LU-165 = format: functional, cell-based, Homo sapiens; conditions: Homo sapiens, LU-165
Description: SANGER: Inhibition of human LU-165 cell growth in a cell viability assay.

MFH-ino = format: functional, cell-based, Homo sapiens; conditions: Homo sapiens, MFH-ino;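 also: growth inhibition of human MFH-ino cells, read out by a cell viability assay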
Description: SANGER: Inhibition of human MFH-ino cell growth in a cell viability assay.

NCI-H889 = format: functional, cell-based, Homo sapiens; conditions: Homo sapiens, NCI-H889;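 also: cell growth inhibition of the cell line, read out with a viability assay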
Description: SANGER: Inhibition of human NCI-H889 cell growth in a cell viability assay.

WSU-NHL = format: functional, cell-based, Homo sapiens; conditions: Homo sapiens, WSU-NHL;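 also: growth inhibition of human WSU-NHL cells, read out with a cell viability assay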
Description: SANGER: Inhibition of human WSU-NHL cell growth in a cell viability assay.

EB-3 = format: functional, cell-based, Homo sapiens; conditions: Homo sapiens, EB-3;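 also: human EB-3 cells, growth inhibition read out via a cell viability assay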
Description: SANGER: Inhibition of human EB-3 cell growth in a cell viability assay.

KMS-12-PE = format: functional, cell-based, Homo sapiens; conditions: Homo sapiens, KMS-12-PE;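 also: growth inhibition of human KMS-12-PE cells, measured with a cell viability assay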
Description: SANGER: Inhibition of human KMS-12-PE cell growth in a cell viability assay.

LB373-MEL-D = format: functional, cell-based, Homo sapiens; conditions: Homo sapiens, LB373-MEL-D;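 also: growth inhibition of the cell line, read out in a cell viability assay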
Description: SANGER: Inhibition of human LB373-MEL-D cell growth in a cell viability assay.

SW1463 = format: functional, cell-based; conditions: Homo sapiens;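 also: growth inhibition of SW1463 cells, determined with a cell viability assay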
Description: SANGER: Inhibition of human SW1463 cell growth in a cell viability assay.

OVCAR-5 = format: functional, cell-based; conditions: Homo sapiens;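 also: growth inhibition of human OVCAR-5 cells, read out with a cell viability assay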
Description: SANGER: Inhibition of human OVCAR-5 cell growth in a cell viability assay.

HuO-3N1 = format: functional, cell-based; conditions: Homo sapiens;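 also: cell viability readout used to measure how strongly compounds suppress proliferation of human HuO-3N1 cells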
Description: SANGER: Inhibition of human HuO-3N1 cell growth in a cell viability assay.

MDA-MB-231 = format: functional, cell-based; conditions: Homo sapiens
Description: SANGER: Inhibition of human MDA-MB-231 cell growth in a cell viability assay.

MeWo = format: functional, cell-based; conditions: Homo sapiens;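 also: growth inhibition of MeWo cells, determined by a cell viability readout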
Description: SANGER: Inhibition of human Mewo cell growth in a cell viability assay.

BXPC-3 = format: functional, cell-based; conditions: Homo sapiens;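 also: growth inhibition of human BxPC-3 cells, read out by a cell viability assay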
Description: SANGER: Inhibition of human BxPC-3 cell growth in a cell viability assay.

SCC-25 = format: functional, cell-based; conditions: Homo sapiens;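 also: growth inhibition of SCC-25 cells, measured with a cell viability assay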
Description: SANGER: Inhibition of human SCC-25 cell growth in a cell viability assay.

CAL-72 = format: functional, cell-based; conditions: Homo sapiens;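 also: cell viability assay measuring inhibition of proliferation in the CAL-72 cell line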
Description: SANGER: Inhibition of human CAL-72 cell growth in a cell viability assay.

SNU-387 = format: functional, cell-based; conditions: Homo sapiens
Description: SANGER: Inhibition of human SNU-387 cell growth in a cell viability assay.

HTC-C3 = format: functional, cell-based; conditions: Homo sapiens;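 also: inhibition of cell growth, read out with a cell viability assay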
Description: SANGER: Inhibition of human HTC-C3 cell growth in a cell viability assay.

NB12 = format: functional, cell-based; conditions: Homo sapiens;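 also: growth inhibition of human NB12 cells, read out by a cell viability assay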
Description: SANGER: Inhibition of human NB12 cell growth in a cell viability assay.

CWR22R = format: functional, cell-based; conditions: Homo sapiens, 22Rv1;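 also: growth inhibition of 22Rv1 cells, read out with a cell viability assay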
Description: SANGER: Inhibition of human 22RV1 cell growth in a cell viability assay.

ESS-1 = format: functional, cell-based; conditions: Homo sapiens;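 also: growth inhibition of human ESS-1 cells, read out by a cell viability assay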
Description: SANGER: Inhibition of human ESS-1 cell growth in a cell viability assay.

ChaGo-K-1 = format: functional, cell-based; conditions: Homo sapiens;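 also: growth inhibition of ChaGo-K-1 cells, read out with a cell viability assay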
Description: SANGER: Inhibition of human ChaGo-K-1 cell growth in a cell viability assay.

LoVo = format: functional, cell-based; conditions: Homo sapiens;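 also: growth inhibition of human LoVo cells, read out with a cell viability assay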
Description: SANGER: Inhibition of human LoVo cell growth in a cell viability assay.

HT-1376 = format: functional, cell-based; conditions: Homo sapiens
Description: SANGER: Inhibition of human HT-1376 cell growth in a cell viability assay.

HSC-2 = format: functional, cell-based; conditions: Homo sapiens;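 also: growth inhibition of human HSC-2 cells, read out by a cell viability assay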
Description: SANGER: Inhibition of human HSC-2 cell growth in a cell viability assay.

NCI-H650 = format: functional, cell-based; conditions: Homo sapiens;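 also: growth inhibition of NCI-H650 cells, read out by a viability assay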
Description: SANGER: Inhibition of human NCI-H650 cell growth in a cell viability assay.

OAW-28 = format: functional, cell-based; conditions: Homo sapiens;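 also: growth inhibition of OAW-28 cells, read out with a cell viability assay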
Description: SANGER: Inhibition of human OAW-28 cell growth in a cell viability assay.

NCI-H2342 = format: functional, cell-based; conditions: Homo sapiens;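 also: growth inhibition of the cancer cell line, determined with a cell viability assay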
Description: SANGER: Inhibition of human NCI-H2342 cell growth in a cell viability assay.

SK-LU-1 = format: functional, cell-based; conditions: Homo sapiens;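 also: cell viability assay measuring growth inhibition of human SK-LU-1 cells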
Description: SANGER: Inhibition of human SK-LU-1 cell growth in a cell viability assay.

WM-115 = format: functional, cell-based; conditions: Homo sapiens
Description: SANGER: Inhibition of human WM-115 cell growth in a cell viability assay.

CAPAN-1 = format: functional, cell-based; conditions: Homo sapiens;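 also: growth suppression of CAPAN-1 cells, read out by a cell viability assay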
Description: SANGER: Inhibition of human CAPAN-1 cell growth in a cell viability assay.

BHY = format: functional, cell-based; conditions: Homo sapiens;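 also: cell growth inhibition read out by a viability assay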
Description: SANGER: Inhibition of human BHY cell growth in a cell viability assay.

CHP-212 = format: functional, cell-based; conditions: Homo sapiens
Description: SANGER: Inhibition of human CHP-212 cell growth in a cell viability assay.

NCI-H2228 = format: functional, cell-based; conditions: Homo sapiens;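 also: growth inhibition of human NCI-H2228 cells, read out by a cell viability assay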
Description: SANGER: Inhibition of human NCI-H2228 cell growth in a cell viability assay.

COR-L105 = format: functional, cell-based; conditions: Homo sapiens;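 also: cell growth inhibition determined with a viability assay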
Description: SANGER: Inhibition of human COR-L105 cell growth in a cell viability assay.

SNU-423 = format: functional, cell-based; conditions: Homo sapiens
Description: SANGER: Inhibition of human SNU-423 cell growth in a cell viability assay.

G-402 = format: functional, cell-based; conditions: Homo sapiens
Description: SANGER: Inhibition of human G-402 cell growth in a cell viability assay.

KYSE-270 = format: functional, cell-based; conditions: Homo sapiens;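 also: cell growth inhibition measured with a viability assay in the human KYSE-270 line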
Description: SANGER: Inhibition of human KYSE-270 cell growth in a cell viability assay.

NCI-H1755 = format: functional, cell-based; conditions: Homo sapiens;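 also: cell viability readout used to measure growth inhibition of NCI-H1755 cells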
Description: SANGER: Inhibition of human NCI-H1755 cell growth in a cell viability assay.

DMS-273 = format: functional, cell-based; conditions: Homo sapiens
Description: SANGER: Inhibition of human DMS-273 cell growth in a cell viability assay.

SW-620 = format: functional, cell-based; conditions: Homo sapiens;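 also: growth inhibition of human SW-620 cells, measured by a cell viability assay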
Description: SANGER: Inhibition of human SW620 cell growth in a cell viability assay.

Ca9-22 = format: functional, cell-based; conditions: Homo sapiens;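 also: growth inhibition of Ca9-22 cells, read out with a cell viability assay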
Description: SANGER: Inhibition of human Ca9-22 cell growth in a cell viability assay.

SW1783 = format: functional, cell-based; conditions: Homo sapiens;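 also: cell growth inhibition measured with a viability assay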
Description: SANGER: Inhibition of human SW1783 cell growth in a cell viability assay.

CAMA-1 = format: functional, cell-based; conditions: Homo sapiens;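 also: growth inhibition of CAMA-1 cells, read out with a cell viability assay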
Description: SANGER: Inhibition of human CAMA-1 cell growth in a cell viability assay.

SK-HEP1 = format: functional, cell-based, SK-HEP-1; conditions: Homo sapiens;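 also: cell viability readout used to quantify reduction in proliferation of human SK-HEP-1 cells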
Description: SANGER: Inhibition of human SK-HEP-1 cell growth in a cell viability assay.

SW1088 = format: functional, cell-based; conditions: Homo sapiens;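 also: growth inhibition of human SW1088 cells, read out by a cell viability assay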
Description: SANGER: Inhibition of human SW1088 cell growth in a cell viability assay.

NCI-H810 = format: functional, cell-based; conditions: Homo sapiens;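 also: IC50 reflects inhibition of cancer cell line growth, read out with a cell viability assay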
Description: SANGER: Inhibition of human NCI-H810 cell growth in a cell viability assay.

RD = format: functional, cell-based; conditions: Homo sapiens
Description: SANGER: Inhibition of human RD cell growth in a cell viability assay.

MC-IXC = format: functional, cell-based; conditions: Homo sapiens;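 also: growth inhibition of MC-IXC cells, read out with a cell viability assay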
Description: SANGER: Inhibition of human MC-IXC cell growth in a cell viability assay.

NCI-H2030 = format: functional, cell-based; conditions: Homo sapiens;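 also: growth inhibition of human NCI-H2030 cells, read out by a cell viability assay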
Description: SANGER: Inhibition of human NCI-H2030 cell growth in a cell viability assay.

Measured: pIC50

C=CC(=O)N1CCCC(Nc2nc(Nc3ccc(N(C)C(=O)CC)cc3)nc3[nH]cnc23)C1 (stereo not given)
< 4.99: IMR-5 | NCI-H716 | KARPAS-422 | YT | P31-FUJ | HuTu80 | LU-165 | MFH-ino | NCI-H889 | WSU-NHL | EB-3 | KMS-12-PE | LB373-MEL-D

COc1ccc(N(C(=O)Oc2c(C)cccc2C)c2ccnc(Nc3ccc(N4CCN(C)CC4)cc3)n2)c(OC)c1
< 5.29: IMR-5 | NCI-H716 | KARPAS-422 | YT | P31-FUJ | LU-165 | NCI-H889 | WSU-NHL | KMS-12-PE | LB373-MEL-D
6.76: HuTu80
6.62: MFH-ino
5.67: EB-3

Cc1cc(N2CCOCC2)cc2[nH]c(-c3c(NC[C@@H](O)c4cccc(Cl)c4)cc[nH]c3=O)nc12
< 5.29: IMR-5 | NCI-H716 | KARPAS-422 | YT | P31-FUJ | LU-165 | NCI-H889 | WSU-NHL | EB-3 | KMS-12-PE | LB373-MEL-D
6.46: MFH-ino
6.33: HuTu80

NC(=O)c1cccc(-c2cc(Nc3ccc(OC(F)(F)F)cc3)ncn2)c1
< 5.89: IMR-5 | NCI-H716 | KARPAS-422 | YT | P31-FUJ | HuTu80 | LU-165 | MFH-ino | NCI-H889 | WSU-NHL | EB-3 | KMS-12-PE | LB373-MEL-D

NC1(c2ccc(-c3nc4ccn5c(=O)[nH]nc5c4cc3-c3ccccc3)cc2)CCC1 [MK-2206]
5.71: SW1088
5.64: OAW-28 | NCI-H2228
5.54: SNU-423
5.88: LoVo
< 5.40: SW1463 | OVCAR-5 | HuO-3N1 | MDA-MB-231 | MeWo | BXPC-3 | SCC-25 | CAL-72 | HTC-C3 | NB12 | CWR22R | ESS-1 | ChaGo-K-1 | HT-1376 | HSC-2 | NCI-H650 | NCI-H2342 | SK-LU-1 | WM-115 | CAPAN-1 | BHY | CHP-212 | KYSE-270 | NCI-H1755 | SW-620 | Ca9-22 | SW1783 | CAMA-1 | SK-HEP1 | NCI-H810 | RD | MC-IXC
5.43: G-402
5.82: DMS-273
5.75: COR-L105
5.72: SNU-387

CN(C)CCOc1ccc(-c2nc(-c3ccncc3)c(-c3ccc4c(c3)CC/C4=N\O)[nH]2)cc1 [SB590885]
6.07: WM-115
< 5.30: SW1463 | OVCAR-5 | HuO-3N1 | MDA-MB-231 | MeWo | NCI-H2030 | BXPC-3 | SCC-25 | CAL-72 | SNU-387 | HTC-C3 | NB12 | CWR22R | ESS-1 | ChaGo-K-1 | LoVo | HT-1376 | HSC-2 | NCI-H650 | OAW-28 | NCI-H2342 | SK-LU-1 | CAPAN-1 | BHY | CHP-212 | NCI-H2228 | COR-L105 | SNU-423 | G-402 | KYSE-270 | NCI-H1755 | DMS-273 | SW-620 | Ca9-22 | SW1783 | CAMA-1 | SK-HEP1 | SW1088 | NCI-H810 | RD | MC-IXC
